Experimental data from PubChem BioAssay AID1918940 (Molecular Pharmacology Branch, DTP, NCI, 2023).

Test system: NCI-H211 complex spheroid viability
Assay: Anticancer human tumor NCI-H211 cell line growth inhibition [LSD1];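 note: luminescent viability read after seven days of drug exposure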;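 for viability, T/C: 100% = DMSO vehicle control viability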
Details: for IC50: curve of first compound; for viability, T/C: stronger effect = lower value; active = viability on the fitted dose curve at most 10% of control; inactive = the rest
Summary of the method: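 Complex spheroids of tumor cells with HUVEC and human MSCs, exposed to iadademstat combined with other agents. Each agent tested in half-log steps from near clinical Cmax (else 10 microM top), DMSO ≤0.25%.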

[1] = second compound 0.1 µM, first compound 0.000316 µM
[2] = second compound 0.1 µM, first compound 0.001 µM
[3] = second compound 0.1 µM, first compound 0.00316 µM
[4] = second compound 0.1 µM, first compound 0.01 µM
[5] = second compound 0.1 µM, first compound 0.0316 µM
[6] = second compound 0.1 µM, first compound 0.1 µM
[7] = second compound 0.316 µM, first compound 0.000316 µM
[8] = second compound 0.316 µM, first compound 0.001 µM
[9] = second compound 0.316 µM, first compound 0.00316 µM
[10] = second compound 0.316 µM, first compound 0.01 µM
[11] = second compound 0.316 µM, first compound 0.0316 µM
[12] = second compound 0.316 µM, first compound 0.1 µM
[13] = second compound 1 µM, first compound 0.000316 µM
[14] = second compound 1 µM, first compound 0.001 µM
[15] = second compound 1 µM, first compound 0.00316 µM
[16] = second compound 1 µM, first compound 0.01 µM
[17] = second compound 1 µM, first compound 0.0316 µM
[18] = second compound 1 µM, first compound 0.1 µM
[19] = second compound 3.16 µM, first compound 0.000316 µM
[20] = second compound 3.16 µM, first compound 0.001 µM
[21] = second compound 3.16 µM, first compound 0.00316 µM
[22] = second compound 3.16 µM, first compound 0.01 µM
[23] = second compound 3.16 µM, first compound 0.0316 µM
[24] = second compound 3.16 µM, first compound 0.1 µM
[25] = second compound 10 µM, first compound 0.000316 µM
[26] = second compound 10 µM, first compound 0.001 µM
[27] = second compound 10 µM, first compound 0.00316 µM
[28] = second compound 10 µM, first compound 0.01 µM
[29] = second compound 10 µM, first compound 0.0316 µM
[30] = second compound 10 µM, first compound 0.1 µM
[31] = second compound 0.1 µM, first compound 0.00949 µM
[32] = second compound 0.1 µM, first compound 0.03 µM
[33] = second compound 0.1 µM, first compound 0.0949 µM
[34] = second compound 0.1 µM, first compound 0.3 µM
[35] = second compound 0.1 µM, first compound 0.949 µM
[36] = second compound 0.1 µM, first compound 3 µM
[37] = second compound 0.316 µM, first compound 0.00949 µM
[38] = second compound 0.316 µM, first compound 0.03 µM
[39] = second compound 0.316 µM, first compound 0.0949 µM
[40] = second compound 0.316 µM, first compound 0.3 µM
[41] = second compound 0.316 µM, first compound 0.949 µM
[42] = second compound 0.316 µM, first compound 3 µM
[43] = second compound 1 µM, first compound 0.00949 µM
[44] = second compound 1 µM, first compound 0.03 µM
[45] = second compound 1 µM, first compound 0.0949 µM
[46] = second compound 1 µM, first compound 0.3 µM
[47] = second compound 1 µM, first compound 0.949 µM
[48] = second compound 1 µM, first compound 3 µM
[49] = second compound 3.16 µM, first compound 0.00949 µM
[50] = second compound 3.16 µM, first compound 0.03 µM
[51] = second compound 3.16 µM, first compound 0.0949 µM
[52] = second compound 3.16 µM, first compound 0.3 µM
[53] = second compound 3.16 µM, first compound 0.949 µM
[54] = second compound 3.16 µM, first compound 3 µM
[55] = second compound 10 µM, first compound 0.00949 µM
[56] = second compound 10 µM, first compound 0.03 µM
[57] = second compound 10 µM, first compound 0.0949 µM
[58] = second compound 10 µM, first compound 0.3 µM
[59] = second compound 10 µM, first compound 0.949 µM
[60] = second compound 10 µM, first compound 3 µM

CC(C)CC(NC(=O)C(Cc1ccccc1)NC(=O)c1cnccn1)B(O)O (stereo not given) + NC1CCC(NC2CC2c2ccccc2)CC1
inactive: viability, T/C [1] 73.8% | viability, T/C [2] 88.6% | viability, T/C [3] 29.3% | viability, T/C [7] 70.9% | viability, T/C [8] 76% | viability, T/C [9] 35.8% | viability, T/C [13] 62.5% | viability, T/C [14] 72.7% | viability, T/C [15] 32.7% | viability, T/C [19] 64.3% | viability, T/C [20] 72.3% | viability, T/C [21] 27.4% | viability, T/C [25] 44.9% | viability, T/C [26] 45.3% | viability, T/C [27] 14.2%
1.79 nM: IC50 (second compound 1 µM)
< 0.316 nM: IC50 (second compound 10 µM)
2 nM: IC50 (second compound 0.1 µM)
1.68 nM: IC50 (second compound 3.16 µM)
2.05 nM: IC50 (second compound 0.316 µM)
active: viability, T/C [4] 2.16% | viability, T/C [5] 3.13% | viability, T/C [6] 6.8% | viability, T/C [10] 1.76% | viability, T/C [11] 0.22% | viability, T/C [12] 0.13% | viability, T/C [16] 1.57% | viability, T/C [17] 0.23% | viability, T/C [18] 2.46% | viability, T/C [22] 1.43% | viability, T/C [23] 0.97% | viability, T/C [24] 0.14% | viability, T/C [28] 0.55% | viability, T/C [29] 0.17% | viability, T/C [30] 0.14%

CC(C)CC(NC(=O)CNC(=O)c1cc(Cl)ccc1Cl)B1OC(=O)CC(CC(=O)O)(C(=O)O)O1 (stereo not given) + NC1CCC(NC2CC2c2ccccc2)CC1
11.8 nM: IC50 (second compound 3.16 µM)
15.4 nM: IC50 (second compound 0.1 µM)
inactive: viability, T/C [1] 81.6% | viability, T/C [2] 90.2% | viability, T/C [3] 103% | viability, T/C [4] 65.1% | viability, T/C [5] 22.5% | viability, T/C [7] 81.5% | viability, T/C [8] 93.3% | viability, T/C [9] 111% | viability, T/C [10] 76.9% | viability, T/C [11] 23.5% | viability, T/C [13] 79.3% | viability, T/C [14] 85% | viability, T/C [15] 109% | viability, T/C [16] 65.3% | viability, T/C [17] 21.4% | viability, T/C [19] 59.8% | viability, T/C [20] 65% | viability, T/C [21] 95.6% | viability, T/C [22] 53% | viability, T/C [23] 18.1% | viability, T/C [25] 44.9% | viability, T/C [26] 37.5% | viability, T/C [27] 51.2% | viability, T/C [28] 35.5% | viability, T/C [29] 12%
< 0.316 nM: IC50 (second compound 10 µM)
18 nM: IC50 (second compound 0.316 µM)
active: viability, T/C [6] 7.53% | viability, T/C [12] 7.18% | viability, T/C [18] 6.25% | viability, T/C [24] 5.75% | viability, T/C [30] 2.35%
15.3 nM: IC50 (second compound 1 µM)

COc1cc(Nc2ncc3c(n2)-c2ccc(Cl)cc2C(c2c(F)cccc2OC)=NC3)ccc1C(=O)O + NC1CCC(NC2CC2c2ccccc2)CC1
< 3.16 nM: IC50 (second compound 0.1 µM) | IC50 (second compound 0.316 µM) | IC50 (second compound 1 µM) | IC50 (second compound 3.16 µM) | IC50 (second compound 10 µM)
active: viability, T/C [4] 8.09% | viability, T/C [5] 2.59% | viability, T/C [6] 2.93% | viability, T/C (second compound 0.1 µM, first compound 0.316 µM) 2.92% | viability, T/C (second compound 0.1 µM, first compound 1 µM) 2.47% | viability, T/C [10] 4.21% | viability, T/C [11] 3.27% | viability, T/C [12] 2.5% | viability, T/C (second compound 0.316 µM, first compound 0.316 µM) 2.51% | viability, T/C (second compound 0.316 µM, first compound 1 µM) 2.35% | viability, T/C [16] 5.71% | viability, T/C [17] 3.16% | viability, T/C [18] 6.76% | viability, T/C (second compound 1 µM, first compound 0.316 µM) 2.71% | viability, T/C (second compound 1 µM, first compound 1 µM) 1.94% | viability, T/C [22] 4.91% | viability, T/C [23] 2.4% | viability, T/C [24] 2.55% | viability, T/C (second compound 3.16 µM, first compound 0.316 µM) 1.47% | viability, T/C (second compound 3.16 µM, first compound 1 µM) 2.19% | viability, T/C [28] 2.05% | viability, T/C [29] 1.29% | viability, T/C [30] 1.19% | viability, T/C (second compound 10 µM, first compound 0.316 µM) 1.28% | viability, T/C (second compound 10 µM, first compound 1 µM) 1.12%
inactive: viability, T/C [3] 34% | viability, T/C [9] 34.6% | viability, T/C [15] 47.9% | viability, T/C [21] 31.8% | viability, T/C [27] 22.4%

Cn1ncnc1C1c2n[nH]c(=O)c3cc(F)cc(c23)NC1c1ccc(F)cc1 (stereo not given) + NC1CCC(NC2CC2c2ccccc2)CC1
inactive: viability, T/C [1] 69.9% | viability, T/C [2] 61.4% | viability, T/C [3] 39.8% | viability, T/C [7] 67% | viability, T/C [8] 66.3% | viability, T/C [9] 30.7% | viability, T/C [13] 59% | viability, T/C [14] 59.9% | viability, T/C [15] 35.7% | viability, T/C [19] 54.7% | viability, T/C [20] 53.5% | viability, T/C [21] 33.7% | viability, T/C [25] 33.6% | viability, T/C [26] 31.5% | viability, T/C [27] 16%
active: viability, T/C [4] 4.59% | viability, T/C [5] 1.93% | viability, T/C [6] 2.12% | viability, T/C [10] 4.65% | viability, T/C [11] 2.59% | viability, T/C [12] 2.43% | viability, T/C [16] 4.84% | viability, T/C [17] 2.31% | viability, T/C [18] 2.49% | viability, T/C [22] 3.84% | viability, T/C [23] 2.11% | viability, T/C [24] 2.23% | viability, T/C [28] 1.98% | viability, T/C [29] 0.92% | viability, T/C [30] 1.15%
1.68 nM: IC50 (second compound 0.316 µM)
1.24 nM: IC50 (second compound 3.16 µM)
< 0.316 nM: IC50 (second compound 10 µM)
1.91 nM: IC50 (second compound 0.1 µM)
1.56 nM: IC50 (second compound 1 µM)

NS(=O)(=O)OCC1CC(n2ccc3c(NC4CCc5ccccc54)ncnc32)CC1O (stereo not given) + NC1CCC(NC2CC2c2ccccc2)CC1
active: viability, T/C [32] 8.79% | viability, T/C [33] 2.05% | viability, T/C [34] 4.77% | viability, T/C [35] 0.6% | viability, T/C [36] 0.42% | viability, T/C [38] 7.48% | viability, T/C [39] 2.74% | viability, T/C [40] 0.89% | viability, T/C [41] 0.5% | viability, T/C [42] 0.48% | viability, T/C [44] 7.52% | viability, T/C [45] 2.66% | viability, T/C [46] 1.51% | viability, T/C [47] 5.93% | viability, T/C [48] 0.59% | viability, T/C [50] 6.38% | viability, T/C [51] 1.67% | viability, T/C [52] 0.54% | viability, T/C [53] 0.21% | viability, T/C [54] 5.61% | viability, T/C [55] 7.36% | viability, T/C [56] 4.1% | viability, T/C [57] 0.72% | viability, T/C [58] 0.29% | viability, T/C [59] 0.22% | viability, T/C [60] 0.19%
< 9.49 nM: IC50 (second compound 0.1 µM) | IC50 (second compound 0.316 µM) | IC50 (second compound 1 µM) | IC50 (second compound 3.16 µM) | IC50 (second compound 10 µM)
inactive: viability, T/C [31] 17.3% | viability, T/C [37] 16.2% | viability, T/C [43] 15.2% | viability, T/C [49] 11.4%

O=C(C=Cc1cccc(S(=O)(=O)Nc2ccccc2)c1)NO + NC1CCC(NC2CC2c2ccccc2)CC1
active: viability, T/C [32] 3.51% | viability, T/C [33] 2.43% | viability, T/C [34] 1.81% | viability, T/C [35] 0.5% | viability, T/C [36] 0.09% | viability, T/C [38] 3.02% | viability, T/C [39] 8.25% | viability, T/C [40] 1.92% | viability, T/C [41] 1.26% | viability, T/C [42] 0.1% | viability, T/C [44] 3.31% | viability, T/C [45] 4.77% | viability, T/C [46] 1.92% | viability, T/C [47] 3.19% | viability, T/C [48] 5.1% | viability, T/C [50] 2.91% | viability, T/C [51] 4.81% | viability, T/C [52] 2.66% | viability, T/C [53] 0.27% | viability, T/C [54] 0.1% | viability, T/C [55] 9.56% | viability, T/C [56] 2.44% | viability, T/C [57] 2.03% | viability, T/C [58] 1.32% | viability, T/C [59] 0.15% | viability, T/C [60] 0.17%
inactive: viability, T/C [31] 15.1% | viability, T/C [37] 18.4% | viability, T/C [43] 17.3% | viability, T/C [49] 11.6%
< 9.49 nM: IC50 (second compound 0.1 µM) | IC50 (second compound 0.316 µM) | IC50 (second compound 1 µM) | IC50 (second compound 3.16 µM) | IC50 (second compound 10 µM)
